# Like-named read-outs stand apart in the source and are kept apart here.
# What was measured:
# [1] = system: NCI-H23 cells depleted of Bak; test: Caspase-3/7 activation after Bak siRNA; assay type: cell-based; conditions: Bak siRNA 72 h, then 6 h treatment
# Experimental: NCI-H23 cells were trypsinized and resuspended in growth medium. SiRNA targeting Bak (cat#S1881, ThermoFisher Scientific) or non-targeting siRNA (cat#4390847, ThermoFisher Scientific), and Lipofectamine RNAiMAX (ThermoFisher Scientific) were mixed in OPTIMEM and incubated at room temperature for 20 min. Next, cell suspension was added to each siRNA master mix, dispensed into each well of a 96-well plate and incubated for 72 h.
# [2] = system: NCI-H929 tumors; test: NCI-H929 subcutaneous xenograft efficacy; assay type: in vivo, mice; conditions: single i.v. dose 100 mg kg^−1
# Experimental: Female C.B.-17 SCID mice and female nude rats were purchased from Charles River Laboratories. […]. All xenograft studies were conducted at our Association for the Assessment and Accreditation of Laboratory Animal Care accredited facility in Waltham, MA in accordance with ethical regulations described in the guidelines established by the internal Institutional Animal Care and Use Committee. […]. In mice, drugs were dosed intravenously in a volume of 5 mL kg^-1 except for venetoclax that was dosed orally in a volume of 10 mL kg^-1. […]. Ten million MV4-11 cells were injected subcutaneously in the right flank of rats in a volume of 0.1 mL. Tumor volumes (measured by caliper), animal body weight, and tumor condition were recorded twice weekly for the duration of the study. The tumor volume was calculated using the formula: length (mm) × width (mm)^2/0.52. For efficacy studies, growth inhibition from the start of treatment was assessed by comparison of the differences in tumor volume between control and treated groups. Statistical significance was evaluated using non-parametric, unpaired, two-tailed t-test. […] For pharmacokinetic analysis, plasma samples were precipitated and diluted with acetonitrile containing internal standard and analyzed by LC–MS/MS versus a calibration curve of known concentrations.
# [3] = system: MOLM-13 leukemic cells; test: MOLM-13 disseminated AML model; assay type: in vivo, mice; conditions: venetoclax 100 mg kg^−1 p.o. daily, AZD5991 60 mg kg^−1 i.v. weekly, after 10 days
# Source text: MOLM-13: These studies complied with all relevant ethical regulations described in the guidelines established by GV-SOLAS Institutional Animal Care and Use Committee. Female CIEA-NOG mice were purchased from Taconic. Mice between 5 and 8 weeks old were tail vein injected with five million MOLM-13 cells. Treatment started 3 days after implantation. AZD5991, venetoclax, and vehicle were formulated and administered as mentioned above. Bone marrow and peripheral blood were collected 10 days post-treatment initiation, followed by red cell lysis (ACK lysis buffer), washes with FC buffer (PBS + 2% FCS) and cell staining with AquaZombie live/dead stain (cat#423102, Biolegend) containing antibodies against human CD45 (cat#564105, BDBiosciences) and human HLA-ABC (cat#561346, BDBiosciences) or isotype controls (mIgG1 cat#552834, BDBiosciences; mIgG1 cat#561504, BDBiosciences). Samples were washed with FC buffer and data acquired on an Attune NXT cytometer and analyzed using FlowJo software. Gating was performed on single/live/FCS vs. SSC/HLA-ABC vs. hCD45 double positive cells (Supplementary Figure 8).
# [4] = system: PL21; test: Cell viability assay; assay type: cell-based; conditions: PL-21, 24 h; PL21 (AML); read-out: AZD5991 24h GI50
# Experimental: (§1) Cells were plated at 3000 cells/well in 384-well white plates in corresponding cell growth media. […] Caspase-3/7 activation was subsequently determined using a Caspase-Glo 3/7 Reagent (Promega) and viability was assayed using the CellTiter-Glo Reagent (Promega) as described in manufacturer’s instructions. Dose–response curves for caspase-3/7 activation and viability were plotted and analyzed (including EC50 and GI50 determination) using GraphPad Prism.
# [5] = system: Bjab; test: Cell viability assay; assay type: cell-based; conditions: Homo sapiens, 24 h; Bjab (NHL); read-out: AZD5991 24h GI50
# Experimental: as §1
# [6] = system: DMS114; test: Cell viability assay; assay type: cell-based; conditions: Homo sapiens, DMS-114, 24 h; DMS114 (Lung); read-out: AZD5991 24h GI50
# Experimental: as §1
# [7] = system: H196; test: Cell viability assay; assay type: cell-based; conditions: NCI-H196, 24 h; H196 (Lung); read-out: AZD5991 24h GI50
# Experimental: as §1
# [8] = system: H1975; test: Cell viability assay; assay type: cell-based; conditions: Homo sapiens, NCI-H1975, 24 h; H1975 (Lung); read-out: AZD5991 24h GI50
# Experimental: as §1
# [9] = system: H23; test: Cell viability assay; assay type: cell-based; conditions: Homo sapiens, NCI-H23, 24 h; H23 (Lung); read-out: AZD5991 24h GI50
# Experimental: as §1
# [10] = system: SBC5; test: Cell viability assay; assay type: cell-based; conditions: Homo sapiens, SBC-5, 24 h; SBC5 (Lung); read-out: AZD5991 24h GI50
# Experimental: as §1
# [11] = system: BT20; test: Cell viability assay; assay type: cell-based; conditions: Homo sapiens, BT-20, 24 h; BT20 (Breast); read-out: AZD5991 24h GI50
# Experimental: as §1
# [12] = system: T47D; test: Cell viability assay; assay type: cell-based; conditions: Homo sapiens, 24 h; T47D (Breast); read-out: AZD5991 24h GI50
# Experimental: as §1
# [13] = system: HMCB; test: Cell viability assay; assay type: cell-based; conditions: Homo sapiens, 24 h; HMCB (Skin); read-out: AZD5991 24h GI50
# Experimental: as §1
# [14] = system: SKMEL24; test: Cell viability assay; assay type: cell-based; conditions: Homo sapiens, SK-MEL-24, 24 h; SKMEL24 (Skin); read-out: AZD5991 24h GI50
# Experimental: as §1
# [15] = system: LnCAP; test: Cell viability assay; assay type: cell-based; conditions: Homo sapiens, 24 h; LnCAP (Urology); read-out: AZD5991 24h GI50
# Experimental: as §1
# [16] = system: SNU1197; test: Cell viability assay; assay type: cell-based; conditions: 24 h; SNU1197 (GI); read-out: AZD5991 24h GI50
# Experimental: as §1
# [17] = system: MOLP8; test: Caspase-3/7 activation assay; assay type: cell-based; conditions: Homo sapiens
# Experimental: as §1
# [18] = system: Eμ-Myc lymphoma cells stably expressing human Bcl-2; test: Apoptosis induction in Eμ-Myc lymphoma cells; conditions: overexpression of Bcl-2, 24 h
# Source text: The retroviral plasmids to express human Bcl-2 family members in murine Eμ-Myc lymphoma cells are MSCV-hMCL-1-GFP, MSCV-hBCL-2-GFP, MSCV-hBCL-XL-GFP, MSCV-hBFL-1/A1-GFP, and MSCV-hBCL-w-GFP. To produce viruses, constructs of interest were co-transfected into HEK293T cells with the plasmid encoding the packaging viruses (p-CL-AMPHO provided by Phillip Darcy from Peter MacCallum Cancer Center, Melbourne, Australia) using standard calcium phosphate transient transfection technique. The retroviruses were harvested, filtered and used to infect target cells following standard procedures.
# Samples were then centrifuged, washed twice with PBS and analyzed by flow cytometry in a BD LSRFortessa. FACSDiva software was used for data collection and FlowJo software for data analysis.
smiles,measurement,setting,value
"Cc1c2c(nn1C)CSCc1cc(n(C)n1)CSc1cc(c3ccccc3c1)OCCCc1c(C(=O)O)n(C)c3c-2c(Cl)ccc13 (atropisomer, axis not shown; (Ra)) [(Ra)-7]",caspase-3/7 activation and cell death,[1],confers resistance
same,mice with complete tumor regression,[2],four out of four
same,percentage of HLA-ABC+ hCD45+ leukemic cells in peripheral blood vs. vehicle,[3],significantly reduced
same,percentage of leukemic cells in bone marrow,[3],reduced
same,GI50,[4],403 nM
same,GI50,[5],16 nM
same,GI50,[6],219 nM
same,GI50,[7],> 30000 nM
same,GI50,[8],17600 nM
same,GI50,[9],122 nM
same,GI50,[10],541 nM
same,GI50,[11],4630 nM
same,GI50,[12],> 30000 nM
same,GI50,[13],3000 nM
same,GI50,[14],17900 nM
same,GI50,[15],13400 nM
same,GI50,[16],27300 nM
same,EC50,"[17]; MOLP-8, 6 h, read-out: AZD5991 6h EC50, MOLP8 (MM), caspase 3/7 activation",57 nM
same,EC50,"[17]; MOLP-8, MOLP-8 cells, 0% serum, read-out: caspase-inducing activity EC50",1 nM
same,EC50,"[17]; MOLP-8, MOLP-8 cells, 2% serum, read-out: caspase-inducing activity EC50",8 nM
same,EC50,"[17]; MOLP-8, caspase activation, Mcl-1-dependent cell line, read-out: MOLP-8, EC50",33 nM
same,EC50,"[17]; MOLP-8, mean of log transformed data, read-out: MOLP-8 caspase pEC50 (converted)",33.1 nM
same,apoptosis-inducing activity,[18],blocked
